Measurements published in PubChem BioAssay (NCI).
Where “and” joins values, the source holds several entries; their conditions need not be identical. Equal values may be shown once.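 Results reflect a 48-hour exposure of cells in 96-well plates to compound at five concentrations. Here, GI50 denotes the concentration required for 50% inhibition of growth. At the TGI there is no net growth.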 Where a SMILES comes first, the peptide text is derived from it.

Columns and labels:
Assay in all cases: inhibition of tumour cell growth, NCI panel, 48 h
HOP-92 NSCLC = test system: HOP-92 NSCLC
ACHN renal = test system: ACHN renal
HL-60(TB) leukemia = test system: HL-60(TB) leukemia
UACC-62 melanoma = test system: UACC-62 melanoma
RPMI-8226 leukemia = test system: RPMI-8226 leukemia
OVCAR-3 ovarian = test system: OVCAR-3 ovarian
A498 renal = test system: A498 renal
EKVX NSCLC = test system: EKVX NSCLC
SW-620 colon = test system: SW-620 colon
NCI-H460 lung = test system: NCI-H460 lung
T-47D breast = test system: T-47D breast
MDA-MB-231 breast = test system: MDA-MB-231 breast

| SMILES | TGI (HOP-92 NSCLC) [µM] | TGI (ACHN renal) [µM] | TGI (HL-60(TB) leukemia) | TGI (UACC-62 melanoma) | TGI (RPMI-8226 leukemia) | TGI (OVCAR-3 ovarian) | TGI (A498 renal) | TGI (EKVX NSCLC) | TGI (SW-620 colon) [µM] | TGI (NCI-H460 lung) | TGI (T-47D breast) [µM] | TGI (MDA-MB-231 breast) [µM] | GI50 (HL-60(TB) leukemia) | GI50 (UACC-62 melanoma) [µM] | GI50 (RPMI-8226 leukemia) | GI50 (OVCAR-3 ovarian) [µM] | GI50 (A498 renal) [µM] | GI50 (EKVX NSCLC) [µM] | GI50 (NCI-H460 lung) | GI50 (T-47D breast) [µM] |
| --- | --- | --- | --- | --- | --- | --- | --- | --- | --- | --- | --- | --- | --- | --- | --- | --- | --- | --- | --- | --- |
| COC(=O)C(=C/c1ccc(OC)cc1)/C(C(=O)O)=C(/C)c1ccccc1 | > 100 | > 100 | > 100 µM | > 100 µM | > 100 µM | > 100 µM | > 100 µM | > 100 µM | > 100 | > 100 µM | – | – | – | – | – | – | – | – | – | – |
| Cc1cccc2c1[C@]13OC(C)[C@]4(C)CC5OC(=O)[C@@]1(C)[C@@H]5[C@]34C(=O)O2 (stereo not given in full) | – | > 100 | > 100 µM | > 100 µM | > 100 µM | > 100 µM | > 100 µM | > 100 µM | > 100 | > 100 µM | > 100 | > 100 | – | – | – | – | – | – | – | – |
| N#Cc1c(-c2ccccc2)[nH]c2ccccc2c1=O | > 100 | > 100 | > 100 µM | > 100 µM | – | > 100 µM | > 100 µM | > 100 µM | > 100 | > 100 µM | – | > 100 | – | – | – | – | – | – | – | – |
| COc1cc2c(cc1OC)C(O)[C@H](Br)C(C)(C)O2 (stereo not given in full) | > 100 | > 100 | > 100 µM | > 100 µM | > 100 µM | > 100 µM | – | > 100 µM | > 100 | > 100 µM | – | – | – | – | – | – | – | – | – | – |
| O=c1[nH]cc(COCC(F)(F)C(F)(F)C(F)(F)C(F)F)c(=O)[nH]1 | > 100 | > 100 | > 100 µM | > 100 µM | > 100 µM | > 100 µM | – | > 100 µM | > 100 | – | – | – | – | – | – | – | – | – | – | – |
| COc1ccc2c(c1C)C(=O)C(O)(CC=C(C)C)O2 (stereo not given) | – | > 100 | > 100 µM | > 100 µM | > 100 µM | > 100 µM | > 100 µM | > 100 µM | > 100 | > 100 µM | > 100 | > 100 | – | – | – | – | – | – | – | – |
| C=C1C(=O)O[C@H]2[C@H]1[C@@H](OC(=O)C=C(C)C)CC1=C[C@@H](C[C@@]3(C)O[C@@H]23)OC1=O | 4.15 | – | 0.977 µM and 4.9 µM | 12.8 µM and 31.6 µM | 67.2 µM and 7.16 µM | 4.77 µM and 15.6 µM | 26.5 µM and 39.2 µM | 10.2 µM and 5.83 µM | 2.77 | 5.83 µM and 31.8 µM | – | – | 0.292 µM and 2.24 µM | 11.3 | 0.81 µM and 2.61 µM | 4.92 | 21.3 | 0.839 | 2.27 µM and 14.9 µM | – |
| CCC(C)C(NC(=O)C(CCCCN)NC(=O)C(NC(=O)C(CCC(N)=O)NC(=O)C(N)CCCNC(=N)N)C(C)CC)C(=O)NC(Cc1c[nH]c2ccccc12)C(=O)NC(Cc1ccccc1)C(=O)NC(CCC(N)=O)C(=O)NC(CC(N)=O)C(=O)NC(CCCNC(=N)N)C(=O)NC(CCCNC(=N)N)C(=O)NC(CCSC)C(=O)NC(CCCCN)C(=O)NC(Cc1c[nH]c2ccccc12)C(=O)NC(CCCCN)C(=O)NC(CCCCN)C(=O)N1CCCC1C(=O)NC(C)C(=O)NC(CCCCN)C(=O)NC(CCCNC(=N)N)C(=O)NC(CCCCN)C(=O)NC(CC(C)C)C(=O)NC(Cc1ccccc1)C(=O)NCC(=O)O (stereo not given) (H-RQIKIWFQNRRMKWKKPAKRKLFG-OH; configuration not given here) | > 25 | > 25 | 17.6 µM | – | 15.1 µM | > 25 µM | – | > 25 µM | > 25 | > 25 µM | – | > 25 | – | – | – | – | – | – | – | – |
| COc1ccc2c(c1)CN1C(=N2)CSC1c1cc([N+](=O)[O-])ccc1Cl (stereo not given) | > 100 | > 100 | 45.8 µM | 57.5 µM | 72.3 µM | – | – | > 100 µM | > 100 | > 100 µM | > 100 | > 100 | – | – | – | – | – | – | – | – |
| NS(=O)(=O)c1ccc(-n2c(-c3cccs3)nc3ccc(I)cc3c2=O)cc1 | 54.1 | 53.8 | 64.4 µM | 46.2 µM | 62.1 µM | 35.1 µM | – | 54.3 µM | > 100 | 83 µM | 43.5 | – | – | – | 25.3 µM | – | – | – | – | 19.2 |
| CCOC(=O)CC1c2ccc(O)cc2OC(=O)C1c1ccc([N+](=O)[O-])cc1 (stereo not given) | 63.2 | 71.7 | 60 µM | 84.4 µM | – | > 100 µM | 89.1 µM | > 100 µM | > 100 | > 100 µM | 60 | 48.6 | – | – | – | – | – | – | – | – |
| Cn1ccc(C(=O)NCCOCCNC(=O)c2ccn(C)c(=O)c2O)c(O)c1=O | > 100 | > 100 | – | > 100 µM | > 100 µM | – | > 100 µM | – | > 100 | > 100 µM | > 100 | > 100 | – | – | – | – | – | – | – | – |
| CN(C)C1=Nc2ccccc2C(=S)N2CSCC12 (stereo not given) | – | > 100 | – | > 100 µM | > 100 µM | > 100 µM | > 100 µM | > 100 µM | > 100 | > 100 µM | > 100 | > 100 | – | – | – | – | – | – | – | – |
| Cc1ccc2c(c1CCCC(C)(C)O)C(=O)C(=O)C(C(C)C)=C2O | > 100 | > 100 | > 100 µM | – | > 100 µM | > 100 µM | > 100 µM | > 100 µM | > 100 | > 100 µM | – | – | – | – | – | – | – | – | – | – |
| Nc1ccc(C(=O)NN2C(=O)C(Cl)C2c2ccccc2Cl)cc1 (stereo not given) | 14.9 | 30 | – | 20.8 µM | > 100 µM | 26.9 µM | – | 31.7 µM | 10.7 | 16.5 µM | – | – | – | – | – | – | – | – | – | – |
| O=C(O)c1ccc(NNc2cc(=O)[nH]c(=O)[nH]2)cc1 | – | > 100 | > 100 µM | > 100 µM | > 100 µM | > 100 µM | > 100 µM | > 100 µM | > 100 | > 100 µM | > 100 | > 100 | – | – | – | – | – | – | – | – |
| COc1ccc2c(c1)CCc1c-2[nH]c2ccc(OC)cc12 | > 100 | > 100 | – | > 100 µM | > 100 µM | > 100 µM | > 100 µM | > 100 µM | > 100 | > 100 µM | > 100 | > 100 | – | – | – | – | – | – | – | – |
| CCCCCC(C[N+]1(C)CCOCC1)C(=O)/C=C/c1ccccc1 (stereo not given) | 35.3 | 60.8 | 37.5 µM | 26.6 µM | 8.59 µM | 27.4 µM | 31.7 µM | 38.2 µM | 7.51 | > 61.5 µM | – | – | – | – | – | – | – | – | – | – |
| C=CCn1c(=O)n(CC=C)c(=O)n(CC=C)c1=O | > 100 | > 100 | > 100 µM | > 100 µM | > 100 µM | > 100 µM | > 100 µM | > 100 µM | > 100 | > 100 µM | – | – | – | – | – | – | – | – | – | – |
